Test results as given in ChEMBL document CHEMBL1130329, “Coumarin-based inhibitors of HIV integrase” (J Med Chem, 1997).
Where “and” joins values, the source holds several entries; their conditions need not be identical. Equal entries are not always repeated.

Tests used:
[1] = Delta Logarithm of Partition Coefficient value was determined.; conditions: octanol/water
[2] = molecular target: T1, Human immunodeficiency virus type 1 integrase (Human immunodeficiency virus 1, UniProt Q7ZJM1); assay: (§1) Inhibitory activity against 3'-processing of DNA by HIV-1 integrase; assay type: functional
T1 sequence (Q7ZJM1 whole entry): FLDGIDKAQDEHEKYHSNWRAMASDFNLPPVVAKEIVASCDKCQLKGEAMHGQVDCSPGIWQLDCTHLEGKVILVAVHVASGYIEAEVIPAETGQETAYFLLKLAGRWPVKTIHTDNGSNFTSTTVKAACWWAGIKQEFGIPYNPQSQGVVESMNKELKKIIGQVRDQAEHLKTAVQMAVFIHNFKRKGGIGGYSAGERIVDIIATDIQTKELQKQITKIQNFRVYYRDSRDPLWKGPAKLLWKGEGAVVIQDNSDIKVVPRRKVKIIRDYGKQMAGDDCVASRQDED

[3] = molecular target: T1, Human immunodeficiency virus type 1 integrase; assay: Integration of DNA by HIV -1 integrase
[4] = molecular target: T1, Human immunodeficiency virus type 1 integrase; assay: Inhibitory activity against 3'-processing of DNA byHIV-1 integrase; assay type: functional
[5] = molecular target: T1, Human immunodeficiency virus type 1 integrase; assay: as §1

| Compound | delta Log P [1] | IC50 [2] | IC50 [3] | IC50 [4] [µM] | IC50 [5] [µM] |
| --- | --- | --- | --- | --- | --- |
| O=c1c(C(c2ccc(O)cc2)c2c(O)oc3ccccc3c2=O)c(O)oc2ccccc12 | 1.1 | 141 µM and 128 µM and 130 µM | 75 µM and 74 µM |  |  |
| O=c1oc2ccccc2c(O)c1C1c2c(c3ccccc3oc2=O)Oc2c1c(=O)oc1ccccc21 |  | 35.7 µM | 22.5 µM |  |  |
| O=c1c(Cc2ccccc2Cc2c(O)oc3ccccc3c2=O)c(O)oc2ccccc12 |  | 46 µM and 45 µM | 20.5 µM and 33.2 µM |  |  |
| CN(C)c1ccc(C(c2c(O)oc3ccccc3c2=O)c2c(O)oc3ccccc3c2=O)cc1 | 1.88 | 100 µM and 190 µM | 50 µM and 88 µM | 88 |  |
| O=c1c(C(c2cccc(C(c3c(O)oc4ccccc4c3=O)c3c(O)oc4ccccc4c3=O)c2)c2c(O)oc3ccccc3c2=O)c(O)oc2ccccc12 |  | 3 µM and 2.9 µM | 1.2 µM and 2 µM |  |  |
| O=c1c(C(c2cc(OCc3ccccc3)cc(OCc3ccccc3)c2)c2c(O)oc3ccccc3c2=O)c(O)oc2ccccc12 | 5.15 | 8 µM and 11 µM and 10 µM | 12 µM and 3.7 µM |  |  |
| O=c1c(C(c2ccc(/C=C/c3ccccc3)cc2)c2c(O)oc3cc(O)ccc3c2=O)c(O)oc2cc(O)ccc12 |  |  | 1.8 µM |  |  |
| O=c1c(Cc2cccc(Cc3c(O)oc4ccccc4c3=O)c2)c(O)oc2ccccc12 |  | 34 µM and 40 µM | 11.1 µM and 27.5 µM |  |  |
| O=c1c(C(c2ccc(C(c3c(O)oc4ccccc4c3=O)c3c(O)oc4ccccc4c3=O)cc2)c2c(O)oc3ccccc3c2=O)c(O)oc2ccccc12 | 2.84 | 2 µM |  |  |  |
| O=c1c(Cc2c(O)oc3cc(O)ccc3c2=O)c(O)oc2cc(O)ccc12 |  | 46.3 µM | 44.9 µM |  |  |
| O=c1c(C(c2ccc3c(c2)Cc2ccccc2-3)c2c(O)oc3ccccc3c2=O)c(O)oc2ccccc12 | 3.4 | 10 µM (2×) and 11 µM | 9.5 µM and 7.8 µM |  |  |
| O=c1oc2ccccc2c(O)c1Cc1c(O)c2ccccc2oc1=O [DICUMAROL] |  | > 300 µM | > 100 µM |  |  |
| O=c1c(C(c2ccccc2)c2c(O)oc3ccccc3c2=O)c(O)oc2ccccc12 | 1.6 | 43.4 µM and 43 µM | 38.8 µM |  |  |
| O=c1c(C(c2cnc3ccccc3c2)c2c(O)oc3ccccc3c2=O)c(O)oc2ccccc12 | 1.6 | 40 µM and 29 µM and 35 µM | 23 µM and 14 µM |  |  |
| O=c1c(C(c2ccc3ccccc3c2)c2c(O)oc3cc(O)ccc3c2=O)c(O)oc2cc(O)ccc12 |  | 4.2 µM | 3.55 µM |  |  |
| O=c1c(C(c2cccnc2)c2c(O)oc3cc(O)ccc3c2=O)c(O)oc2cc(O)ccc12 |  | 62 µM and 116 µM | 25 µM and 97 µM |  | 89 |
| O=c1c(C(c2ccco2)c2c(O)oc3ccccc3c2=O)c(O)oc2ccccc12 | 0.45 | 75 µM and 34 µM and 54 µM | 133 µM and 122 µM |  |  |

| Compound | delta Log P [1] | IC50 [2] | IC50 [3] | IC50 [4] [µM] | IC50 [5] [µM] |
| --- | --- | --- | --- | --- | --- |
| O=c1c(C(c2cccs2)c2c(O)oc3ccccc3c2=O)c(O)oc2ccccc12 | 0.86 | 100 µM and 105 µM | 148 µM and 149 µM | 110 |  |
| O=c1cc(O)c2ccc(O)cc2o1 |  | 300 µM | 325 µM |  |  |
| O=c1cc(O)c2ccccc2o1 [4-HYDROXYCOUMARINS] |  | > 100 µM | > 100 µM |  |  |
| O=c1c(C(c2ccc3ccccc3c2)c2c(O)oc3ccccc3c2=O)c(O)oc2ccccc12 | 2.6 | 19 µM and 20 µM (2×) | 16 µM and 9 µM |  |  |
| O=c1c(Cc2ccc(Cc3c(O)oc4ccccc4c3=O)cc2)c(O)oc2ccccc12 |  | 80.6 µM | 69.2 µM |  |  |
| O=c1c(C(c2ccccn2)c2c(O)oc3cc(O)ccc3c2=O)c(O)oc2cc(O)ccc12 |  | 94 µM and 84 µM | 49 µM and 70 µM |  | 81 |
| O=c1c(C(c2ccc(-c3ccccc3)cc2)c2c(O)oc3ccccc3c2=O)c(O)oc2ccccc12 | 3.33 | 14 µM and 16 µM and 15 µM | 13 µM and 28 µM |  |  |
| O=c1c(C(c2ccc(/C=C/c3ccccc3)cc2)c2c(O)oc3ccccc3c2=O)c(O)oc2ccccc12 | 4.14 | 5.5 µM and 9.2 µM and 7 µM | 3.7 µM and 9.5 µM |  |  |
| O=c1c(C(c2ccc(C(c3c(O)oc4cc(O)ccc4c3=O)c3c(O)oc4cc(O)ccc4c3=O)cc2)c2c(O)oc3cc(O)ccc3c2=O)c(O)oc2cc(O)ccc12 |  | 0.37 µM | 0.33 µM |  |  |
| O=C(O)c1ccc(C(c2c(O)oc3ccccc3c2=O)c2c(O)oc3ccccc3c2=O)cc1 |  | 66 µM and 48 µM | 54 µM and 49 µM |  |  |
| O=c1c(C(c2ccccc2)c2c(O)oc3cc(O)ccc3c2=O)c(O)oc2cc(O)ccc12 |  | 17.2 µM | 22.2 µM |  |  |
| O=c1c(C(c2ccc([N+](=O)[O-])cc2)c2c(O)oc3ccccc3c2=O)c(O)oc2ccccc12 | 1.37 | 58 µM and 54 µM | 12 µM and 24 µM | 50 |  |
| COc1cc(C(c2c(O)c3ccccc3oc2=O)c2c(O)c3ccccc3oc2=O)ccc1O | 1.05 | 198 µM and 177 µM and 190 µM | 76 µM and 108 µM |  |  |
| 3,3'-(Ferrocenomethylene)bis[4-hydroxycoumarin] |  | 11 µM and 3.6 µM | 7 µM and 5 µM |  |  |
| O=c1c(C(c2ccc(OCc3ccccc3)cc2)c2c(O)oc3ccccc3c2=O)c(O)oc2ccccc12 | 3.06 | 19 µM and 8.5 µM and 20 µM | 14 µM and 24 µM |  |  |
| O=c1oc2ccccc2c(O)c1C1c2ccccc2Oc2c1c(=O)oc1ccccc21 (centres undefined) |  | 121 µM and 127 µM | 122 µM and 163 µM |  |  |
